The values that follow are results of earlier work, collected in patent US10646464B2, “Methods for treating cancer” (Boston Biomedical, Inc., priority 2017, dated 2020).

The subject of one data set is Stat3 pathway. Particulars: read-out: inhibits Stat3 pathway activity, cellular IC50.
Data set [1] has as its system patients with advanced, previously treated pancreatic adenocarcinoma. Particulars: weekly paclitaxel alone, previously reported.

Molecules are shown by their SMILES.

As a reminder, the IC50 is the concentration needed to halve the response being measured. Consider `CC(=O)c1cc2c(o1)C(=O)c1ccccc1C2=O` [2-acetylnaphtho[2,3-b]furan-4,9-dione], for which the IC50 in the data set on Stat3 pathway was around 250 nM. Take `CC(=O)O[C@H]1C(=O)[C@@]2(C)[C@H]([C@H](OC(=O)c3ccccc3)[C@]3(O)C[C@H](OC(=O)[C@H](O)[C@@H](NC(=O)c4ccccc4)c4ccccc4)C(C)=C1C3(C)C)[C@]1(OC(C)=O)CO[C@@H]1C[C@@H]2O` [paclitaxel]: the “median overall survival (mOS)” value in data set [1] is recorded as “about 17.5 weeks”.
